# Test results from patent publication US20260159536A1, “AKR1C3-ACTIVATED DNA ALKYLATING AGENT, AND MEDICAL APPLICATION THEREOF” (ASCENTAWITS PHARMACEUTICALS, LTD., priority 2021, published 2026).
# Read-outs that look alike come from different tables or passages of the source.
# What was measured:
# [1] = target: T1, P-gp (Homo sapiens, UniProt P08183); assay: P-gp substrate evaluation, MDCKII-MDR1 penetration test with or without Verapamil; type: in vitro ADME
# T1 construct: expressed in transfected cells; host or cells: MDCKII-MDR1 cells
# T1 sequence (P08183 whole entry): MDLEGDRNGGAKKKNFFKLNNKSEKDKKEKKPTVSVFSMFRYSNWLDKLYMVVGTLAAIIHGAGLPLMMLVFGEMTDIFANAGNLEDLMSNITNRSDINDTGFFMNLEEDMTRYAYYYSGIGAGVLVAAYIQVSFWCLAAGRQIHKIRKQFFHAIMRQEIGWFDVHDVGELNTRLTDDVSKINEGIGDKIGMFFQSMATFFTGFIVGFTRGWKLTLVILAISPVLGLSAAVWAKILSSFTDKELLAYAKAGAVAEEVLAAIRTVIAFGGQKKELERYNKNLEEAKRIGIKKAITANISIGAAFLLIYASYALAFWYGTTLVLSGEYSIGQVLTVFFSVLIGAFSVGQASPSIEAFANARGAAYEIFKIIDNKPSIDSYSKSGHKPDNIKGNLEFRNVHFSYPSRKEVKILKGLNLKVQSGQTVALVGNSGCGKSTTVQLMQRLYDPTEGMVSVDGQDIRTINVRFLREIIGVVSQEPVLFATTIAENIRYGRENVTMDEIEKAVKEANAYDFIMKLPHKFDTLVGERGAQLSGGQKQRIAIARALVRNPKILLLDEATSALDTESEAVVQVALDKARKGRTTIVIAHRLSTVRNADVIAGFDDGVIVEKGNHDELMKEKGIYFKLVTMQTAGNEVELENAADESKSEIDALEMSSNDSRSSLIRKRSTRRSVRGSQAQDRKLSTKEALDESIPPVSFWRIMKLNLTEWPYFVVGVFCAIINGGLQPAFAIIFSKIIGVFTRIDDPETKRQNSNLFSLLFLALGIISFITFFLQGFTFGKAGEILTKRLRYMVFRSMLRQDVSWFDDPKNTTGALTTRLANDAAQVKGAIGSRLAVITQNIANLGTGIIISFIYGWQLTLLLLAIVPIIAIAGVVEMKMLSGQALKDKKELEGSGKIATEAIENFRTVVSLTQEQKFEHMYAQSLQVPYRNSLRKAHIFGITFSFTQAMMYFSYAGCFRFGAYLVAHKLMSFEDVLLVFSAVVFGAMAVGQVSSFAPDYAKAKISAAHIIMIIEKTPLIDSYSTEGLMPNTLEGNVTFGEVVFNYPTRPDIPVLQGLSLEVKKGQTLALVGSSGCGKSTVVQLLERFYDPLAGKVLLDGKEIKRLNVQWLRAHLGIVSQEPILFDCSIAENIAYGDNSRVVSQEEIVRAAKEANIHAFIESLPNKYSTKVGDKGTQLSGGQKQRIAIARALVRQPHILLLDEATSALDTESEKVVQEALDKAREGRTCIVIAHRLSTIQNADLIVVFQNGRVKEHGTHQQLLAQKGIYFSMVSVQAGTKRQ
# Description: The conditions of the incubator were set as 37° C., 5% CO2, and 95% of the relative humidity.
# After that, the MDCKII-MDR1 cells can be used for the penetration test.
# (1) MDCKII-MDR1 transwell culture plate was taken out from the incubator.
# (6) The upper and lower transportations were pooled and then incubated at 37° C. for 2 h.
# After the sample tubes were vortexed for 10 min, and centrifuged at 3220 g for 30 min. […] Each sample was adopted to the three parallel incubation.
# Efflux Ratio was calculated by the following formula: […]
# Recovery was calculated by the following formula: […]
# [2] = Liver microsome stability, human; type: in vitro ADME; details: for Percentage remaining after 30 minutes: Human liver microsomes
# Description: (§1) 1) Two individual experiments were performed.
# (§2) All experiments were performed in duplicate.
# [3] = tested on: HuPrime model LI6643 human liver cancer; assay: In vivo pharmacodynamics, liver cancer LI6643 PDX model (Compound A, Sorafenib, AST-3424; section 4.7); parameters: species or system BALB/c nude mice; details: for Relative tumor volume (x ± S) / T/C (%) / TGI (%) / Tumor volume (x ± S): 2 weeks off, QDx5; for Tumor volume (x ± S): in mm³
# Description: Experiment Instruction: BALB/c nude mice were subcutaneously inoculated with HuPrime® model LI6643 tumor blocks to establish a subcutaneous grafted tumor model of human liver cancer. […] The efficacy was evaluated according to the relative tumor inhibition rate TGI (%), and the safety was evaluated according to the change in body weight and the death of the animals.
# [4] = tested on: NCI-H23; assay: AKR1C3-dependent cytotoxicity, NSCLC cell line NCI-H23; type: cell-based; details: Homo sapiens
# Description: (§3) The tested compound was then added. The compound was dissolved in 100% DMSO at 200 times of the desired final test concentration. When the medicament was added, the compound was further diluted to 4 times of the desired final test concentration by using the complete medium. 50 μL of aliquots of the compound with specific concentration were added to the microwells containing 150 μL of medium, and then the final medicament concentration was obtained. […] The medicament was then washed. […] After the incubation was finished, the Alamar Blue was used to analyze and quantify the living cells.
# [5] = tested on: NCIH1755; assay: AKR1C3-dependent cytotoxicity, NSCLC cell line NCIH1755; type: cell-based; details: Homo sapiens, NCI-H1755
# Description: as §3
# [6] = tested on: NCI-H1944; assay: AKR1C3-dependent cytotoxicity, NSCLC cell line NCI-H1944; type: cell-based; details: Homo sapiens
# Description: as §3
# [7] = tested on: NCI-H1563; assay: AKR1C3-dependent cytotoxicity, NSCLC cell line NCI-H1563; type: cell-based; details: Homo sapiens
# Description: as §3
# [8] = tested on: HuPrime model GA6201 human gastric cancer; details: for Relative tumor volume (x ± S) / T/C (%) / TGI (%) / Tumor volume (x ± S): Day 38
# Description: The test was divided into groups of the test drug Isocyclophosphamide 60 mg/kg group, the test drug AST-3424 5 mg/kg group, the test drug A compound 2.5 mg/kg and 5 mg/kg groups, and normal saline (pH 7.0-7.6) vehicle control group, a total of 5 groups, with 5 mice per group.
# In the above dosing regimen, Isocyclophosphamide was designed based on the best dosing regimen with maximum safe dosage as recited in the document (Jessica D. Sun, Qian Liu, Dharmendra Ahluwalia, Damien J. Ferraro, Yan Wang, Don Jung, Mark D. Matteucci, and Charles P. Hart. Comparison of hypoxia-activated prodrug evofosfamide (TH-302) and ifosfamide in preclinical non-small cell lung cancer models [J]. Cancer Biology & Therapy, 2016, 17(4): 371-380).
# [9] = tested on: CAL12T; assay: AKR1C3-dependent cytotoxicity, NSCLC cell line CAL12T; type: cell-based; details: Homo sapiens, CAL-12T
# Description: as §3
# [10] = tested on: NCI-H2228; assay: AKR1C3-dependent cytotoxicity, NSCLC cell line NCI-H2228; type: cell-based; details: Homo sapiens
# Description: as §3
# [11] = tested on: NCI-H522; assay: AKR1C3-dependent cytotoxicity, NSCLC cell line NCI-H522; type: cell-based; details: Homo sapiens
# Description: as §3
# [12] = Liver microsome stability, rat; type: in vitro ADME; details: for Percentage remaining after 30 minutes: Rat liver microsomes
# Description: as §1, §2
# [13] = 0.5 mg/kg i.v. QDx5, 2 days off, Day 21
# [14] = 2 mg/kg i.v. QDx5, 2 days off, Day 21
# [15] = Compound A 1 mg/kg i.v. QDx5, 2 days off, Day 21
structure (smiles),measurement,setting,value
O=[N+]([O-])c1ccc(C(OP(=O)(N2CC2)N2CC2)C(F)(F)F)cc1Oc1ccc(-c2ccc(F)cc2)c(F)c1 (racemic) [Compound A],P-gp substrate,"[1]; MDCKII-MDR1, with and without Verapamil",not substrates for Pgp
same,Papp A→B at 2 h,"[1]; dog, MDCK-MDR1",0.18 ×10⁻⁶ cm/s
same,Papp B→A at 2 h,"[1]; dog, MDCK-MDR1",0.24 ×10⁻⁶ cm/s
same,recovery at 2 h,"[1]; dog, MDCK-MDR1, Verapamil 0 μM, read-out: Recovery (%) AP-BL",5.03%
same,recovery at 2 h,"[1]; dog, MDCK-MDR1, Verapamil 0 μM, read-out: Recovery (%) BL-AP",4.34%
same,recovery at 2 h,"[1]; dog, MDCK-MDR1, with Verapamil 100 μM, Verapamil 100 μM, read-out: Recovery (%) AP-BL",5.7%
same,recovery at 2 h,"[1]; dog, MDCK-MDR1, with Verapamil 100 μM, Verapamil 100 μM, read-out: Recovery (%) BL-AP",12.6%
same,Percentage remaining after 30 minutes,[2]; with the addition of NADPH,115.25%
same,Percentage remaining after 30 minutes,[2]; without the addition of NADPH,111.93%
same,stability in liver microsomes,[2]; human,relatively stable
same,Relative tumor volume (x ± S),[3]; [13],1.84 ± 0.25
same,T/C (%),[3]; [13],38.12%
same,TGI (%),[3]; [13],61.88%
same,Tumor volume (x ± S),[3]; [13],242.85 ± 50.74
same,Tumor volume,"[3]; 0.5 mg/kg i.v., Day 0",124.86 mm^3
same,Tumor volume,"[3]; 0.5 mg/kg i.v., Day 3",239.56 mm^3
same,Tumor volume,"[3]; 0.5 mg/kg i.v., Day 7",282.74 mm^3
same,Tumor volume,"[3]; 0.5 mg/kg i.v., Day 10",266.35 mm^3
same,Tumor volume,"[3]; 0.5 mg/kg i.v., Day 14",231.35 mm^3
same,Tumor volume,"[3]; 0.5 mg/kg i.v., Day 17",241.82 mm^3
same,Tumor volume,"[3]; 0.5 mg/kg i.v., Day 21",242.85 mm^3
same,Tumor volume,"[3]; 0.5 mg/kg i.v., Day 24",173.56 mm^3
same,Tumor volume,"[3]; 0.5 mg/kg i.v., Day 28",188.68 mm^3
same,Relative tumor volume (x ± S),[3]; [14],0.97 ± 0.14
same,T/C (%),[3]; [14],20.19%
same,TGI (%),[3]; [14],79.81%
same,Tumor volume (x ± S),[3]; [14],116.38 ± 20.17
same,Tumor volume,"[3]; 2 mg/kg i.v., Day 0",124.40 mm^3
same,Tumor volume,"[3]; 2 mg/kg i.v., Day 3",182.25 mm^3
same,Tumor volume,"[3]; 2 mg/kg i.v., Day 7",182.74 mm^3
same,Tumor volume,"[3]; 2 mg/kg i.v., Day 10",162.65 mm^3
same,Tumor volume,"[3]; 2 mg/kg i.v., Day 14",137.87 mm^3
same,Tumor volume,"[3]; 2 mg/kg i.v., Day 17",117.10 mm^3
same,Tumor volume,"[3]; 2 mg/kg i.v., Day 21",116.38 mm^3
same,Tumor volume,"[3]; 2 mg/kg i.v., Day 24",122.78 mm^3
same,Tumor volume,"[3]; 2 mg/kg i.v., Day 28",95.87 mm^3
same,Relative tumor volume (x ± S),[3]; [15],1.44 ± 0.16
same,T/C (%),[3]; [15],29.91%
same,TGI (%),[3]; [15],70.09%
same,Tumor volume (x ± S),[3]; [15],174.86 ± 17.43
same,Tumor volume,"[3]; Compound A 1 mg/kg i.v., Day 0",124.32 mm^3
same,Tumor volume,"[3]; Compound A 1 mg/kg i.v., Day 3",205.79 mm^3
same,Tumor volume,"[3]; Compound A 1 mg/kg i.v., Day 7",246.90 mm^3
same,Tumor volume,"[3]; Compound A 1 mg/kg i.v., Day 10",225.40 mm^3
same,Tumor volume,"[3]; Compound A 1 mg/kg i.v., Day 14",195.33 mm^3
same,Tumor volume,"[3]; Compound A 1 mg/kg i.v., Day 17",191.98 mm^3
same,Tumor volume,"[3]; Compound A 1 mg/kg i.v., Day 21",174.86 mm^3
same,Tumor volume,"[3]; Compound A 1 mg/kg i.v., Day 24",217.19 mm^3
same,Tumor volume,"[3]; Compound A 1 mg/kg i.v., Day 28",231.64 mm^3
same,IC50,[4],11900 nM
same,IC50,[5],570 nM
same,IC50,[6],71.3 nM
same,IC50,[7],454 nM
same,relative tumor inhibition rate (TGI),[8]; 2.5 mg/kg and 5 mg/kg i.v. QWx2,more than 96%
same,Relative tumor volume (x ± S),[8]; 2.5 mg/kg i.v. QWx2,0.29 ± 0.08
same,T/C (%),[8]; 2.5 mg/kg i.v. QWx2,3.15%
same,TGI (%),[8]; 2.5 mg/kg i.v. QWx2,96.85%
same,Tumor volume (x ± S),[8]; 2.5 mg/kg i.v. QWx2,28.69 ± 8.2
same,Tumor volume,"[8]; 2.5 mg/kg i.v., 0 day",94.61 mm^3
same,Tumor volume,"[8]; 2.5 mg/kg i.v., 3 days",120.19 mm^3
same,Tumor volume,"[8]; 2.5 mg/kg i.v., 7 days",118.33 mm^3
same,Tumor volume,"[8]; 2.5 mg/kg i.v., 10 days",118.65 mm^3
same,Tumor volume,"[8]; 2.5 mg/kg i.v., 14 days",96.08 mm^3
same,Tumor volume,"[8]; 2.5 mg/kg i.v., 17 days",76.14 mm^3
same,Tumor volume,"[8]; 2.5 mg/kg i.v., 21 days",71.72 mm^3
same,Tumor volume,"[8]; 2.5 mg/kg i.v., 24 days",57.94 mm^3
same,Tumor volume,"[8]; 2.5 mg/kg i.v., 28 days",45.51 mm^3
same,Tumor volume,"[8]; 2.5 mg/kg i.v., 31 days",43.44 mm^3
same,Tumor volume,"[8]; 2.5 mg/kg i.v., 35 days",32.04 mm^3
same,Tumor volume,"[8]; 2.5 mg/kg i.v., 38 days",28.69 mm^3
same,Tumor volume,"[8]; 2.5 mg/kg i.v., 42 days",23.49 mm^3
same,Tumor volume,"[8]; 2.5 mg/kg i.v., 45 days",25.00 mm^3
same,Tumor volume,"[8]; 2.5 mg/kg i.v., 49 days",17.72 mm^3
same,Relative tumor volume (x ± S),[8]; Compound A 5 mg/kg i.v. QWx2,0.19 ± 0.08
same,T/C (%),[8]; Compound A 5 mg/kg i.v. QWx2,2.04%
same,TGI (%),[8]; Compound A 5 mg/kg i.v. QWx2,97.96%
same,Tumor volume (x ± S),[8]; Compound A 5 mg/kg i.v. QWx2,19.97 ± 10.18
same,Tumor volume,"[8]; Compound A 5 mg/kg i.v., 0 day",94.36 mm^3
same,Tumor volume,"[8]; Compound A 5 mg/kg i.v., 3 days",118.42 mm^3
same,Tumor volume,"[8]; Compound A 5 mg/kg i.v., 7 days",101.91 mm^3
same,Tumor volume,"[8]; Compound A 5 mg/kg i.v., 10 days",97.17 mm^3
same,Tumor volume,"[8]; Compound A 5 mg/kg i.v., 14 days",74.20 mm^3
same,Tumor volume,"[8]; Compound A 5 mg/kg i.v., 17 days",59.77 mm^3
same,Tumor volume,"[8]; Compound A 5 mg/kg i.v., 21 days",46.21 mm^3
same,Tumor volume,"[8]; Compound A 5 mg/kg i.v., 24 days",44.03 mm^3
same,Tumor volume,"[8]; Compound A 5 mg/kg i.v., 28 days",38.50 mm^3
same,Tumor volume,"[8]; Compound A 5 mg/kg i.v., 31 days",35.92 mm^3
same,Tumor volume,"[8]; Compound A 5 mg/kg i.v., 35 days",22.70 mm^3
same,Tumor volume,"[8]; Compound A 5 mg/kg i.v., 38 days",19.97 mm^3
same,Tumor volume,"[8]; Compound A 5 mg/kg i.v., 42 days",5.05 mm^3
same,Tumor volume,"[8]; Compound A 5 mg/kg i.v., 45 days",11.14 mm^3
same,Tumor volume,"[8]; Compound A 5 mg/kg i.v., 49 days",9.96 mm^3
same,body weight change / toxic effects,"[8]; GA6201 model, tested doses",no effect on the body weights
same,IC50,[9],8080 nM
same,IC50,[10],12.8 nM
same,IC50,[11],14100 nM
same,Percentage remaining after 30 minutes,[12]; with the addition of NADPH,92.10%
same,Percentage remaining after 30 minutes,[12]; without the addition of NADPH,114.62%
same,stability in liver microsomes,[12]; rat,relatively unstable
